# Results from paper PMC7115756 (Journal of Medicinal Chemistry, 2020).
# “Also recorded” adds a separate entry of the source.
# What was measured:
# TTR/Aβ(12–28) complex = TTR/Aβ(12–28) complex (Homo sapiens, UniProt P02766); assay: ITC, ternary complex: [TTR + stabilizer] titrated with Aβ; format: binding; conditions: compared with TTR + Aβ(12–28) without stabilizer
# TTR/Aβ(1–42) complex = TTR/Aβ(1–42) complex (Homo sapiens, UniProt P02766); assay: as above; format: binding; conditions: compared with TTR/Aβ(1–42) without stabilizer
# mice model of AD = conditions: in vivo administration; cited from earlier work
# TTR = TTR (Homo sapiens, UniProt P02766); assay: ITC, binary complex TTR + Aβ peptide; format: binding; conditions: thermograms of binary complexes; HEPES/glycine pH 7.4, 5% DMSO, 25 °C
chaperoning effect on the TTR/Aβ(1–42) interaction (in words) (TTR/Aβ(1–42) complex),interaction with TTR by ITC (in words) (TTR),Compound,also measured
cooperative effect,–,"O=C(O)c1cc(-c2ccc(F)cc2F)cc(I)c1O [IDIF, 2',4'-difluoro-4-hydroxy-5-iodo-1,1'-biphenyl-3-carboxylic acid]","effect of the stabilizer on the TTR/Aβ(12–28) complex (in words) (TTR/Aβ(12–28) complex): stabilizing; effect in AD mice (brain Aβ, cognition) (mice model of AD): decrease in brain Aβ levels and deposition"
–,no significant interaction,EDVG SNKGA IIGLM [Aβ(25–35) (8)],–
chaperoning effect could not be observed,–,"O=C(O)c1cc(-c2ccc(F)cc2F)ccc1O [Diflunisal, 5-(2,4-difluorophenyl)-2-hydroxy-benzoic acid]",effect of the stabilizer on the TTR/Aβ(12–28) complex (in words) (TTR/Aβ(12–28) complex; listed as diflunisal (1)): do not enhance the TTR/Aβ interaction; also recorded: negligible

# Further lines, the compound ahead of its results:
Compound,chaperoning effect on the TTR/Aβ(1–42) interaction (in words) (TTR/Aβ(1–42) complex),interaction with TTR by ITC (in words) (TTR),also measured
"O=C(O)c1ccc2nc(-c3cc(Cl)cc(Cl)c3)oc2c1 [Tafamidis, 2-(3,5-dichlorophenyl)-1,3-benzoxazole-6-carboxylic acid]",–,–,effect of the stabilizer on the TTR/Aβ(12–28) complex (in words) (TTR/Aβ(12–28) complex; listed as Tafamidis (2)): do not enhance the TTR/Aβ interaction; also recorded: negligible; chaperoning effect on the TTR/Aβ(1–42) interaction (in words) (TTR/Aβ(1–42) complex; listed as Tafamidis (2)): negligible effect; also recorded: chaperoning effect could not be observed; also recorded: not detected
DAEFR HDSGY E [Aβ(1–11) (5)],–,no significant interaction,–
Y EVHHQ KLVFF [Aβ(10–20) (6)],–,very low enthalpy change,–
